Results taken from the supplement of paper PMC10307832.

Key:
Assay in all cases: relative viability (nuclei count vs DMSO), 5 days (fraction); higher = more cells survive
[1] = compound: C1CCC(CC1)N(CCNCCC2=C3C(=C(C=C2)O)NC(=O)CO3)C(=O)CCNCCC4=CC(=C(C=C4)Cl)Cl [AZ505] + C[C@@H](Oc1cc(-c2cnn(C3CCNCC3)c2)cnc1N)c1c(Cl)ccc(F)c1Cl [Crizotinib] (partner 1 µM)
In short: (§1)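 Relative viability equals treated-well nuclei counts divided by vehicle-well nuclei counts. Counts came from 4× images of lung cancer cell lines grown in 1536-well plates for 5 days after pin-tool dosing on the day after seeding. Dosing used one drug alone or a fixed anchor-drug dose plus five library-drug doses (not always all listed) in √10 steps, and values are medians of duplicate plates.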

[2] = compound: Cn1c(=O)n(-c2ccc(C(C)(C)C#N)cc2)c2c3cc(-c4cnc5ccccc5c4)ccc3ncc21 [Dactolisib] + CC1(C)CCC(c2ccc(Cl)cc2)=C(CN2CCN(c3ccc(C(=O)NS(=O)(=O)c4ccc(N[C@H](CCN5CCOCC5)CSc5ccccc5)c(S(=O)(=O)C(F)(F)F)c4)cc3)CC2)C1 [Navitoclax] (partner 0.5 µM)
In short: as §1

[3] = compound: Cn1c(=O)n(-c2ccc(C(C)(C)C#N)cc2)c2c3cc(-c4cnc5ccccc5c4)ccc3ncc21 [Dactolisib] + CCNC(=O)c1noc(-c2cc(C(C)C)c(O)cc2O)c1-c1ccc(CN2CCOCC2)cc1 [Luminespib] (partner 0.01 µM)
In short: as §1

[4] = compound: Cn1c(=O)n(-c2ccc(C(C)(C)C#N)cc2)c2c3cc(-c4cnc5ccccc5c4)ccc3ncc21 [Dactolisib] + Cc1nc(Nc2ncc(C(=O)Nc3c(C)cccc3Cl)s2)cc(N2CCN(CCO)CC2)n1 [Dasatinib] (partner 0.075 µM)
In short: as §1

Cell Line	relative viability ([1]; first compound 0.08 µM)	relative viability ([1]; first compound 0.253 µM)	relative viability ([1]; first compound 0.8 µM)	relative viability ([1]; first compound 2.53 µM)	relative viability ([1]; first compound 8 µM)	relative viability ([2]; first compound 0.002 µM)	relative viability ([2]; first compound 0.006325 µM)	relative viability ([2]; first compound 0.02 µM)	relative viability ([2]; first compound 0.06325 µM)	relative viability ([2]; first compound 0.2 µM)	relative viability ([3]; first compound 0.002 µM)	relative viability ([3]; first compound 0.006325 µM)	relative viability ([3]; first compound 0.02 µM)	relative viability ([3]; first compound 0.06325 µM)	relative viability ([3]; first compound 0.2 µM)	relative viability ([4]; first compound 0.002 µM)	relative viability ([4]; first compound 0.006325 µM)	relative viability ([4]; first compound 0.02 µM)	relative viability ([4]; first compound 0.06325 µM)	relative viability ([4]; first compound 0.2 µM)
NCI-H2347	0.518	0.55	0.433	0.443	0.559	0.928	0.746	0.729	0.308	0.271	0.49	0.433	0.467	0.286	0.284	0.284	0.306	0.313	0.291	0.253
NCI-H2405	0.634	0.596	0.586	0.565	0.63	0.727	0.935	0.831	0.391	0.25	0.665	0.689	0.755	0.393	0.272	0.224	0.238	0.207	0.213	0.187
NCI-H3122	0.255	0.275	0.299	0.268	0.294	1.02	1.05	0.993	0.809	0.491	0.134	0.0901	0.104	0.0762	0.085	0.702	0.818	0.752	0.675	0.225
PC-3 [JPC-3]	0.885	0.979	0.916	0.94	1.03	0.796	0.787	0.879	0.742	0.509	0.759	0.639	0.683	0.472	0.48	1.1	0.941	0.911	1.03	0.885
PC-14	0.787	0.805	0.934	0.846	0.95	1.09	1.06	1.06	0.329	0.432	0.136	0.16	0.172	0.11	0.128	0.312	0.285	0.264	0.0655	0.0441
RERF-LC-KJ	0.769	0.848	0.774	0.842	0.833	0.875	1.03	0.697	0.455	0.609	1.3	1.29	0.859	0.326	0.415	0.99	0.747	0.69	0.347	0.311
SK-LU-1	0.608	0.731	0.649	0.664	0.714	1.14	0.627	0.707	0.673	0.319	0.211	0.18	0.214	0.159	0.132	0.148	0.172	0.162	0.145	0.127
SK-MES-1	0.901	0.967	0.947	0.904	0.916	1.34	1.17	1.1	0.574	0.55	0.828	0.744	0.349	0.286	0.171	0.433	0.375	0.307	0.222	0.147
SW 1573	0.878	0.868	0.927	0.733	0.886	1.09	0.866	0.775	0.252	0.294	0.234	0.214	0.214	0.168	0.0994	0.627	0.493	0.306	0.146	0.119
